Test results taken from patent US9113629B2, “4-amino-6-(4-substituted-phenyl)-picolinates and 6-amino-2-(4-substituted-phenyl)-pyrimidine-4-carboxylates and their use as herbicides” (DOW AGROSCIENCES LLC, priority 2013, dated 2015).

Experiments:
Experiment in all cases: Post-emergent Test III, herbicidal activity in wheat and barley
Assay type in all cases: in vivo
[1] = tested on: HORSS: barley, including spring and winter (Hordeum vulgare); settings: 21 days after application; for pest or weed control at 35 g/ha / pest or weed control at 70 g/ha: Hordeum vulgare, post-emergence, 504 h, read-out: Visual Gorowth Reduction (%) 21 days After Application HORSS; for pest or weed control at 35 g/ha: 35 g ai/ha; for pest or weed control at 70 g/ha: 70 g ai/ha; for GR20 HORSS: probit analysis, dose for 20 percent growth reduction (crop)
How it was run: (§1)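 GR20, GR50, GR80 and GR90 come from probit analysis of visual injury scores (0 = none, 100 = complete kill) taken 21 d after treatment. Foliar application was by track sprayer delivering 187 L/ha at five rates, from high down to 1/16×, onto greenhouse plants at the 2–3 leaf stage, with solvent-blank controls.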

[2] = tested on: KCHSC: kochia (Kochia scoparia); settings: 21 days after application; for pest or weed control at 35 g/ha / pest or weed control at 70 g/ha: Bassia scoparia, post-emergence, 504 h, read-out: Visual Gorowth Reduction (%) 21 days After Application KCHSC; for pest or weed control at 35 g/ha: 35 g ai/ha; for pest or weed control at 70 g/ha: 70 g ai/ha; for GR50 KCHSC / GR80 KCHSC: probit analysis; for GR50 KCHSC: dose for 50 percent growth reduction; for GR80 KCHSC: dose for 80 percent growth reduction
How it was run: as §1

[3] = tested on: MATSS: scented mayweed (Matricaria chamomilla), pineappleweed (Matricaria matricarioides); settings: 21 days after application; for pest or weed control at 35 g/ha / pest or weed control at 70 g/ha: Matricaria chamomilla, post-emergence, 504 h, read-out: Visual Gorowth Reduction (%) 21 days After Application MATSS; for pest or weed control at 35 g/ha: 35 g ai/ha; for pest or weed control at 70 g/ha: 70 g ai/ha; for GR50 MATSS / GR80 MATSS: probit analysis; for GR50 MATSS: dose for 50 percent growth reduction; for GR80 MATSS: dose for 80 percent growth reduction
How it was run: as §1

[4] = tested on: SASKR: Russian thistle (Salsola iberica); settings: 21 days after application; for pest or weed control at 35 g/ha / pest or weed control at 70 g/ha: Salsola tragus, post-emergence, 504 h, read-out: Visual Gorowth Reduction (%) 21 days After Application SASKR; for pest or weed control at 35 g/ha: 35 g ai/ha; for pest or weed control at 70 g/ha: 70 g ai/ha; for GR50 SASKR / GR80 SASKR: probit analysis; for GR50 SASKR: dose for 50 percent growth reduction; for GR80 SASKR: dose for 80 percent growth reduction
How it was run: as §1

[5] = tested on: TRZSS: wheat, including spring and winter (Triticum aestivum); settings: 21 days after application; for pest or weed control at 35 g/ha / pest or weed control at 70 g/ha: Triticum aestivum, post-emergence, 504 h, read-out: Visual Gorowth Reduction (%) 21 days After Application TRZSS; for pest or weed control at 35 g/ha: 35 g ai/ha; for pest or weed control at 70 g/ha: 70 g ai/ha; for GR20 TRZSS: probit analysis, dose for 20 percent growth reduction (crop)
How it was run: as §1

[6] = tested on: VERPE: bird's-eye speedwell (veronica persica); settings: 21 days after application; for pest or weed control at 35 g/ha / pest or weed control at 70 g/ha: Veronica persica, post-emergence, 504 h, read-out: Visual Gorowth Reduction (%) 21 days After Application VERPE; for pest or weed control at 35 g/ha: 35 g ai/ha; for pest or weed control at 70 g/ha: 70 g ai/ha; for GR50 VERPE / GR80 VERPE: probit analysis; for GR50 VERPE: dose for 50 percent growth reduction; for GR80 VERPE: dose for 80 percent growth reduction
How it was run: as §1

[7] = tested on: VIOSS: wild pansy (Viola tricolor), field violet (Viola arvensis); settings: 21 days after application; for pest or weed control at 35 g/ha / pest or weed control at 70 g/ha: Viola tricolor, post-emergence, 504 h, read-out: Visual Gorowth Reduction (%) 21 days After Application VIOSS; for pest or weed control at 35 g/ha: 35 g ai/ha; for pest or weed control at 70 g/ha: 70 g ai/ha; for GR50 VIOSS / GR80 VIOSS: probit analysis; for GR50 VIOSS: dose for 50 percent growth reduction; for GR80 VIOSS: dose for 80 percent growth reduction
How it was run: as §1

SMILES	pest or weed control at 35 g/ha [1] [%]	pest or weed control at 70 g/ha [1] [%]	GR20 HORSS [1] [g ai/ha]	pest or weed control at 35 g/ha [2] [%]	pest or weed control at 70 g/ha [2] [%]	GR50 KCHSC [2] [g ai/ha]	GR80 KCHSC [2] [g ai/ha]	pest or weed control at 35 g/ha [3] [%]	pest or weed control at 70 g/ha [3] [%]	GR50 MATSS [3] [g ai/ha]	GR80 MATSS [3] [g ai/ha]	pest or weed control at 35 g/ha [4] [%]	pest or weed control at 70 g/ha [4] [%]	GR50 SASKR [4] [g ai/ha]	GR80 SASKR [4] [g ai/ha]	pest or weed control at 35 g/ha [5] [%]	pest or weed control at 70 g/ha [5] [%]	GR20 TRZSS [5] [g ai/ha]	pest or weed control at 35 g/ha [6] [%]	pest or weed control at 70 g/ha [6] [%]	further results
COc1c(N)nc(-c2ccc(Br)c(F)c2F)nc1C(=O)O [Compound 8]	60 to 74	75 to 84	1	95 to 100	95 to 100	3	6	60 to 74	75 to 84	26	73	85 to 94	85 to 94	1	16	75 to 84	85 to 94	1	95 to 100	95 to 100	GR50 VERPE [6]: 1 g ai/ha; GR80 VERPE [6]: 1 g ai/ha; pest or weed control at 35 g/ha [7]: 85 to 94%; pest or weed control at 70 g/ha [7]: 85 to 94%; GR50 VIOSS [7]: 13 g ai/ha; GR80 VIOSS [7]: 28 g ai/ha
Nc1c(F)c(-c2ccc(Br)c(F)c2)nc(C(=O)O)c1Cl [Compound 21]	85 to 94	95 to 100	1	95 to 100	95 to 100	1	1	85 to 94	85 to 94	5	31	75 to 84	85 to 94	1	25	75 to 84	85 to 94	1	30 to 44	0 to 29	GR50 VERPE [6]: 130 g ai/ha; GR80 VERPE [6]: >140 g ai/ha; pest or weed control at 35 g/ha [7]: 95 to 100%; pest or weed control at 70 g/ha [7]: 95 to 100%; GR50 VIOSS [7]: 4 g ai/ha; GR80 VIOSS [7]: 6 g ai/ha
Nc1cc(-c2ccc(I)c(F)c2F)nc(C(=O)O)c1Cl [Compound 38]	85 to 94	85 to 94	1	85 to 94	85 to 94	1	24	60 to 74	85 to 94	21	56	60 to 74	60 to 74	17	68	85 to 94	85 to 94	1	30 to 44	60 to 74	GR50 VERPE [6]: 42 g ai/ha; GR80 VERPE [6]: 112 g ai/ha; pest or weed control at 35 g/ha [7]: 95 to 100%; pest or weed control at 70 g/ha [7]: 95 to 100%; GR50 VIOSS [7]: 13 g ai/ha; GR80 VIOSS [7]: 26 g ai/ha
COC(=O)c1nc(-c2ccc(Br)cc2F)c(F)c(N)c1Cl [Compound 52]	85 to 94	95 to 100	1	75 to 84	85 to 94	5	38	0 to 29	60 to 74	62	91	60 to 74	75 to 84	4	84	85 to 94	85 to 94	1	75 to 84	95 to 100	GR50 VERPE [6]: 20 g ai/ha; GR80 VERPE [6]: 37 g ai/ha; pest or weed control at 35 g/ha [7]: 95 to 100%; pest or weed control at 70 g/ha [7]: 95 to 100%; GR50 VIOSS [7]: 12 g ai/ha; GR80 VIOSS [7]: 19 g ai/ha
